Test results published in patent publication US20140158116A1, “INHIBITING TRPA1 FOR THE TREATMENT OF ASTHMA” (Cubist Pharmaceuticals, Inc., priority 2012, published 2014).
“Also recorded” adds a separate entry of the source.

Experiments:
[1] = 7-day repeat dose i.p. screening toxicity study in rats; type: in vivo, rat; conditions: female rats, 50 mg/kg/day i.p. for 7 consecutive days
Protocol: The compound of Formula (Ia) was evaluated in a 7-day repeat dose screening toxicity study in female rats. In order to maximize systemic exposure, rats were administered compound of Formula (Ia) i.p. at 50 mg/kg/day for 7 consecutive days, to obtain the results shown in FIG. 6. Clinical chemistry parameters were evaluated on Days 3 and 8. Histopathology was performed on select organs including the liver, kidney, spleen, and lung.

hTRPC5 = target: T1, hTRPC5 (Homo sapiens, UniProt Q9UL62); assay: Patch clamp selectivity, hTRPC5; type: cell-based
T1 sequence (Q9UL62 1-973): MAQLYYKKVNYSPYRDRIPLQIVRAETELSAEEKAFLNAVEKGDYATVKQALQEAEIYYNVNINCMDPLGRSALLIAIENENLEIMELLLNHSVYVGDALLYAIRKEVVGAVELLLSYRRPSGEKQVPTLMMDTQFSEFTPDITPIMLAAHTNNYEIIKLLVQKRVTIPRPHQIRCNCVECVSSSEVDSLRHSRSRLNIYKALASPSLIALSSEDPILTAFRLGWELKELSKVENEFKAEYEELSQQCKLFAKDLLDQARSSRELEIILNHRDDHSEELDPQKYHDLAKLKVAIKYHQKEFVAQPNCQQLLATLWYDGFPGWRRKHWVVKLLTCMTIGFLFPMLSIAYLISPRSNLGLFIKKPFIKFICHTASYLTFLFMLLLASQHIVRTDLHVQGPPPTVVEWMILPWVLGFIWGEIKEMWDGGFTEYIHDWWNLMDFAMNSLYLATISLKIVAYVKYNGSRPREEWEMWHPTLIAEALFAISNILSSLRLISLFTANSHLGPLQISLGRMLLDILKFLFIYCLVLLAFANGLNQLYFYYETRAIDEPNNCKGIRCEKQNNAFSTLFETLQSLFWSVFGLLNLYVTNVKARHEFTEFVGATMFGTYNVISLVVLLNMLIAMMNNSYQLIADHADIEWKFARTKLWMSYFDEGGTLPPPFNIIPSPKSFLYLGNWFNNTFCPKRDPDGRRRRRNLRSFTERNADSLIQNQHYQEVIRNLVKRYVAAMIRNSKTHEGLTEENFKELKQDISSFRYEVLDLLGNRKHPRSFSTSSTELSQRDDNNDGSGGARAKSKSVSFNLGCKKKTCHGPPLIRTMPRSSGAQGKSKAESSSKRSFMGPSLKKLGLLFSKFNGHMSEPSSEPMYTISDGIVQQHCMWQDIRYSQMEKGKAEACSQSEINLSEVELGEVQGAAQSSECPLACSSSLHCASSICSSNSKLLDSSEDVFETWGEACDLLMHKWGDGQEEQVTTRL
Protocol: Data for TRPA1 inhibition and the selectivity of TRPA1 inhibition was obtained by this method for the compound of Formula (Ia) and included in Table 1 and Table 2. All currents were recorded in whole-cell configuration using EPC-9 and EPC-10 amplifiers and Patchmaster software (HEKA). […] The standard pipette solution consisted of 140 mM CsAsp, 10 mM EGTA, 10 mM HEPES, 2.27 mM MgCl2, 1.91 mM CaCl2, 4 mM MgATP, and 0.1-0.3 mM Na2GTP, with pH adjusted to 7.2 with CsOH. In addition, a solution containing 145 mM CsCl, 10 mM HEPES, 10 mM EGTA and 1 mM MgCl2 (pH 7.2 adjusted with CsOH) can be used. The standard bath solution contained 150 mM NaCl, 10 mM HEPES, 10 mM glucose, 4.5 mM KCl, 1 mM EGTA, 3 mM MgCl2, with pH adjusted to 7.4 with NaOH. In some instances, 2 mM CaCl2 was added in place of EGTA and the concentration of MgCl2 was reduced to 1 mM.
Data were collected either by continuous recordings at −60 mV or by applying voltage ramps from a holding potential of 0 mV every 4 s. […] Inward and outward currents were analyzed from the ramps at −80 and 80 mV, respectively. […]
Solutions were switched using a gravity-fed continuous focal perfusion system. […] Temperatures were confirmed using a thermistor (Warner Instruments, TA-29), with temperatures at the recorded cell estimated to be within +/−2° C. of those reported. […]

[2] = Human plasma protein binding by equilibrium dialysis; type: in vitro ADME; conditions: percentage bound
Protocol: The amount of compound in buffer (free fraction) and the amount of compound associated with the plasma fraction is determined by equilibrium dialysis; the amount of compound bound is expressed as a percentage. (Banker et al., Journal of Pharmaceutical Sciences (2003) 92(5): 967-74.)

C[C@H]1CCCN1c1ncc(-c2cccc(NC(=O)Cn3cnc4c3c(=O)n(C)c(=O)n4C)n2)cn1 [Formula (Ia)]
clinical signs, body weight, clinical chemistry parameters [1]: no adverse clinical signs, changes in body weight, or changes in clinical chemistry parameters were noted
histopathology of liver, kidney, spleen, lung ([1]; 50 mg/kg/day): No histopathological findings in the liver, kidney, spleen, or lung were observed; also recorded: no adverse effects related to the compound of Formula (Ia) were identified
Fold Selectivity Compared to TRPA1 (hTRPC5): >100 fold
IC50 (hTRPC5; 80 micromolar LaCl3, Inward (−80 mV)): > 10 µM
fraction unbound [2]: > 0.01
